Source: patent publication US8071141B2, “Compositions for preventing or ameliorating multiple risk factor syndromes” (priority 2000, dated 2011)
Counter-ions that a name gives are not always drawn. Like-named read-outs stand apart in the source and are kept apart here.

Key:
[1] = tested on: KK-Ay mice; assay: Test Example 3: preventing effect on diabetes mellitus in type II diabetic model mice-2; type: in vivo; settings: pioglitazone 0.04% or licorice extract (Preparation Example 2) 0.2% in food
Source text: Regarding troglitazone, Noscal Tab.
As a positive control, the antidiabetic agent pioglitazone was used. As pioglitazone, Actos Tab. […] For the determination of blood glucose, the simple blood glucose test Glutest Ace (Sanwa Kagaku Kenkyusho Co., Ltd.) was used.

[2] = tested on: KK-Ay mice; assay: Test Example 4: ameliorating effect on diabetes mellitus in type II diabetic model mice; type: in vivo; settings: pioglitazone 0.02% or licorice extract (Preparation Example 2) 0.2% in food
Source text: As a positive control, the antidiabetic agent pioglitazone was used.
The mice had free access to food for 7 days. […] For the determination of blood glucose, the simple blood glucose test Glutest Ace (Sanwa Kagaku Kenkyusho Co., Ltd.) was used.

[3] = tested on: KK-Ay mice; assay: Test Example 7: efficacy of turmeric extract in type II diabetic model mice; type: in vivo; settings: pioglitazone 0.04% or turmeric extract (Preparation Example 5) 0.5% in food
Source text: (§1) As a positive control, the antidiabetic agent pioglitazone was used. […] As pioglitazone, Actos Tab.

[4] = tested on: KK-Ay mice; assay: Test Example 9: efficacy of clove extract in type II diabetic model mice; type: in vivo; settings: pioglitazone 0.02% or clove extract (Preparation Example 7) 0.5% in food
Source text: as §1

[5] = tested on: spontaneously hypertensive rats (SHR); assay: Test Example 5: efficacy in spontaneously hypertensive rats; type: in vivo; settings: licorice extract (Preparation Example 3) 300 mg/kg/day or enalapril maleate 20 mg/kg/day orally
Method: As a positive control, enalapril maleate, an antihypertensive agent, was used.
During the period, the mice had free access to food (CRF-1, Oriental Yeast Co.) and water.
On the day immediately preceding the start of treatment and on day 7, day 14, and day 21 of treatment, the blood pressure was measured at the tail artery using a non-invasive automatic hemomanometer (BP-97A, Softron Co., Ltd.). The measurement of blood pressure was performed before each administration of the sample.

[6] = tested on: KK-Ay mice; settings: for Blood glucose: troglitazone 0.2% or licorice extract (Preparation Example 1) 0.15% in food
Method: As a positive control, the antidiabetic agent troglitazone was used.
Regarding troglitazone, Noscal Tab. 200 (200 mg of troglitazone in each tablet; Sankyo Co., Ltd.) was pulverized in an agate mortar and added to the normal food at a final concentration of 0.2%.
During the feeding period, small samples of blood were taken weekly from the mouse tail vein and the blood glucose was determined with the simple blood glucose test Novo Assist Plus (Novo Nordisk Pharma Ltd.).
At the end of the feeding period, the mice were fasted overnight and the abdomen was opened under ether anesthesia.
The blood was withdrawn from the abdominal aorta and the liver was excised and weighed. In addition, Sogo Ikagaku Kenkyusho Co., Ltd. was entrusted with analyses for serum total cholesterol (T-CHO), triglyceride (TG), free fatty acid (NEFA), GOT, GPT, LAP, cholinesterase (ChoE), total protein (TP-S), albumin (ALB-S), and A/G ratio.

[7] = end of 4-week feeding, overnight fast, troglitazone 0.2% or licorice extract 0.15% in food

With `CCc1ccc(CCOc2ccc(CC3SC(=O)NC3=O)cc2)nc1` (stereo not shown) [Pioglitazone, pioglitazone] the Blood glucose ([1]; 1 week) was 163 ± 23 mg/dL, the Blood glucose ([1]; 2 week) was 182 ± 9 mg/dL and the Blood glucose ([1]; 3 week) was 167 ± 18 mg/dL. For the same compound, the Blood glucose ([1]; 4 week) was 153 ± 21 mg/dL, the Blood glucose ([1]; Start) was 151 ± 9 mg/dL and the Blood glucose ([2]; Day 4) was 168 ± 49 mg/dL. For the same compound, the Blood glucose ([2]; Day 7) was 143 ± 16 mg/dL, the Blood glucose ([2]; Start, hyperglycemic 15-week-old mice) was 378 ± 36 mg/dL and the Blood glucose ([3]; 1 week) was 163 ± 23 mg/dL. For the same compound, the Blood glucose ([3]; 2 week) was 182 ± 9 mg/dL, the Blood glucose ([3]; 3 week) was 166 ± 18 mg/dL and the Blood glucose ([3]; 4 week) was 153 ± 21 mg/dL. The Blood glucose ([3]; Start) was 151 ± 9 mg/dL, the Blood glucose ([4]; 1 week) was 208 ± 21 mg/dL and the Blood glucose ([4]; 2 week) was 192 ± 17 mg/dL. It also gave a Blood glucose ([4]; 3 week) of 164 ± 16 mg/dL and a Blood glucose ([4]; Start) of 156 ± 16 mg/dL.
With `CCOC(=O)[C@H](CCc1ccccc1)N[C@@H](C)C(=O)N1CCC[C@H]1C(=O)O` [Enalapril maleate, enalapril maleate] the Blood pressure ([5]; Before start, tail artery) was 111 ± 2.5 mmHg, the Blood pressure ([5]; Day 7, tail artery) was 118 ± 3.2 mmHg and the Blood pressure ([5]; Day 14, tail artery) was 119 ± 3.4 mmHg. For the same compound, the Blood pressure ([5]; Day 21, tail artery) was 134 ± 3.1 mmHg.
`Cc1c(C)c2c(c(C)c1O)CCC(C)(COc1ccc(CC3SC(=O)NC3=O)cc1)O2` (stereo not shown) [Troglitazone, troglitazone] showed a Blood glucose ([6]; 1 week) of 217 ± 74 mg/dL, a Blood glucose ([6]; 2 week) of 173 ± 40 mg/dL and a Blood glucose ([6]; 3 week) of 304 ± 77 mg/dL. For the same compound, the Blood glucose ([6]; 4 week) was 246 ± 51 mg/dL, the Blood glucose ([6]; Start) was 145 ± 11 mg/dL and the “NEFA (serum free fatty acid)” value [6, 7] was 1750 ± 302 μEq/L. For the same compound, the “T-CHO (serum total cholesterol)” value [6, 7] was 163 ± 7 mg/dL, the “TG (serum triglyceride)” value [6, 7] was 39 ± 14 mg/dL and the A/G ratio ([6]; mouse, in vivo) was 0.98 ± 0.05. The “ALB-S (albumin)” value ([6]; mouse, in vivo) was 2.50 ± 0.12 g/dL, the GOT ([6]; mouse, in vivo) was 121 ± 26 IU/L and the GPT ([6]; mouse, in vivo) was 70.5 ± 26.2 IU/L. For the same compound, the LAP ([6]; mouse, in vivo) was 60.8 ± 6.1 IU/L, the “TP-S (total protein)” value ([6]; mouse, in vivo) was 5.13 ± 0.17 g/dL and the “elevation in GOT compared with the non-treatment group” value ([6]; mouse, in vivo) was 13%. The “ChoE (cholinesterase)” value ([6]; serum, end of 4-week feeding, troglitazone 0.2% or licorice extract 0.15% in food) was 153 ± 9 IU/L.
